Test results taken from US20230167088A1, “1-PYRAZINYLPYRAZOLYL-3-OXYALKYL ACIDS AND THEIR DERIVATIVES, AND THEIR USE FOR CONTROL OF UNDESIRED PLANT GROWTH” (BAYER AKTIENGESELLSCHAFT, priority 2020, published 2023).

Columns and labels:
LOLRI [1] = experiment: Herbicidal post-emergence action 1a (greenhouse pots, visual rating); format: in vivo, Lolium rigidum; settings: rated visually about 3 weeks after treatment, 100% = plants have died, 0% = like control plants
Method in brief: (§1)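 Weeds and crops sown in sandy loam in greenhouse pots were sprayed post-emergence at the one-leaf stage (2–3 weeks after sowing) with WP or EC formulations plus 0.5% additive at 600 l/ha water, 320 and/or 80 g/ha. About 3 weeks later damage was rated visually against untreated controls (0% = no effect, 100% = dead).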

AMARE [2] = experiment: as above; format: in vivo, Amaranthus retroflexus; settings: visual rating about 3 weeks after treatment
Method in brief: as §1

POLCO = experiment: as above; format: in vivo, Polygonum convolvulus; settings: visual rating about 3 weeks after treatment
Method in brief: as §1

VIOTR = experiment: as above; format: in vivo, Viola tricolor; settings: visual rating about 3 weeks after treatment
Method in brief: as §1

VERPE = experiment: as above; format: in vivo, Veronica persica; settings: visual rating about 3 weeks after treatment
Method in brief: as §1

ALOMY = experiment: Herbicidal pre-emergence action 2a (greenhouse pots, visual scoring); format: in vivo, Alopecurus myosuroides; settings: dosage 320 g/ha, visual scoring after about 3 weeks
Method in brief: (§2)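 Visual scoring after roughly 3 weeks, as percent effect relative to untreated pots (0% = like control, 100% = dead). Seeds were covered with soil, then the surface received aqueous WP/EC suspension or emulsion (0.5% additive, 600 l/ha) at 320 and/or 80 g/ha.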

ECHCG = experiment: as above; format: in vivo, Echinochloa crus-galli; settings: dosage 320 g/ha, visual scoring after about 3 weeks
Method in brief: as §2

LOLRI [3] = experiment: as above; format: in vivo, Lolium rigidum; settings: dosage 320 g/ha, visual scoring after about 3 weeks vs untreated controls
Method in brief: as §2

AMARE [4] = experiment: as above; format: in vivo, Amaranthus retroflexus; settings: dosage 320 g/ha, visual scoring after about 3 weeks vs untreated controls
Method in brief: as §2

MATIN = experiment: Herbicidal pre-emergence action 2b (doubly sown, 1280 g/ha); format: in vivo, Matricaria inodora; settings: doubly sown pots, dosage 1280 g/ha, visual scoring after about 3 weeks
Method in brief: (§3)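 Read-out: visual percentage damage relative to untreated controls, scored after roughly 3 weeks in the greenhouse, where 100% means plants died and 0% equals control. Seeds were sown two species per pot in sandy loam and covered before the compounds, formulated as WP or EC with 0.5% additive, were sprayed onto the soil at 600 L/ha.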

STEME = experiment: as above; format: in vivo, Stellaria media; settings: doubly sown pots, dosage 1280 g/ha, visual scoring after about 3 weeks
Method in brief: as §3

harmful plants = experiment: Herbicidal post-emergence action 1a, summary across species; format: in vivo; settings: Tables A1 to A15 (320 g/ha and/or 80 g/ha)
Protocol: a) Seeds of monocotyledonous and dicotyledonous weeds and crop plants are placed in sandy loam in plastic or organic plant pots, covered with soil and cultivated in a greenhouse under controlled growth conditions. 2 to 3 weeks after sowing, the test plants are treated at the one-leaf stage. The compounds of the invention, formulated in the form of wettable powders (WP) or as emulsion concentrates (EC), are then sprayed onto the green parts of the plants as aqueous suspension or emulsion with addition of 0.5% additive at a water application rate of 600 1/ha (converted). After the test plants have been kept in the greenhouse under optimum growth conditions for about 3 weeks, the activity of the preparations is rated visually in comparison to untreated controls. For example, 100% activity=the plants have died, 0% activity=like control plants.
Tables A1 to A15 below show the effects of selected compounds of the general formula (I) according to Tables 1 and 2 on various harmful plants and an application rate corresponding to 320 g/ha and/or 80 g/ha, which were obtained by the experimental procedure mentioned above.
For example, compound nos. I-05, I-07, I-08, I-10, I-12, I-16, I-17, I-22, I-36, I-37, I-39 and I-40 in the post-emergence method have very good action (80% to 100% herbicidal activity) against harmful plants such as Alopecurus myosuroides, Amaranthus retroflexus, Avena fatua, Lolium rigidum, Polygonum convolvulus, Setaria viridis, Veronica persica and Viola tricolor at an application rate of 0.32 kg of active substance per hectare.

COC(=O)C(C)Oc1nn(-c2cnccn2)c(-c2ccnc(F)c2)c1Cl (racemic) [Example I-05]
Post-emergence action against LOLRI in % (LOLRI [1]; Dosage 320 g/ha): 90% | Post-emergence action against AMARE in % (AMARE [2]; dosage 320 g/ha): 80% | Post-emergence action against POLCO in % (POLCO; dosage 80 g/ha): 80% | Post-emergence action against VIOTR in % (VIOTR; dosage 80 g/ha): 90% | Post-emergence action against VIOTR in % (VIOTR; dosage 320 g/ha): 90% | Post-emergence action against VERPE in % (VERPE; dosage 80 g/ha): 80% | Post-emergence action against VERPE in % (VERPE; dosage 320 g/ha): 90% | Pre-emergence action against ALOMY in % (ALOMY): 100% | Pre-emergence action against ECHCG in % (ECHCG): 90% | Pre-emergence action against LOLRI in % (LOLRI [3]): 100% | Pre-emergence action against AMARE in % (AMARE [4]): 100% | Pre-emergence action at 1280 g/ha against MATIN in % (MATIN): 90% | Pre-emergence action at 1280 g/ha against STEME in % (STEME): 100% | herbicidal efficacy against harmful plants in the case of post-emergence treatment (in words) (harmful plants): good herbicidal efficacy

COC(=O)C(C)Oc1nn(-c2cnccn2)c(-c2cncc(F)c2)c1Br (racemic) [Example I-08]
Post-emergence action against LOLRI in % (LOLRI [1]; Dosage 320 g/ha): 90% | Post-emergence action against AMARE in % (AMARE [2]; dosage 320 g/ha): 80% | Post-emergence action against POLCO in % (POLCO; dosage 320 g/ha): 100% | Post-emergence action against VIOTR in % (VIOTR; dosage 80 g/ha): 90% | Post-emergence action against VIOTR in % (VIOTR; dosage 320 g/ha): 90% | Post-emergence action against VERPE in % (VERPE; dosage 80 g/ha): 90% | Post-emergence action against VERPE in % (VERPE; dosage 320 g/ha): 90% | Pre-emergence action against ALOMY in % (ALOMY): 100% | Pre-emergence action against ECHCG in % (ECHCG): 100% | Pre-emergence action against LOLRI in % (LOLRI [3]): 100% | Pre-emergence action against AMARE in % (AMARE [4]): 100% | herbicidal efficacy against harmful plants in the case of post-emergence treatment (in words) (harmful plants): good herbicidal efficacy

CCOC(=O)COc1nn(-c2cnccn2)c(-c2ccccc2)c1Br [Example I-01]
Post-emergence action against LOLRI in % (LOLRI [1]; Dosage 320 g/ha): 90% | Post-emergence action against AMARE in % (AMARE [2]; dosage 80 g/ha): 80% | Post-emergence action against AMARE in % (AMARE [2]; dosage 320 g/ha): 90% | Post-emergence action against POLCO in % (POLCO; dosage 80 g/ha): 80% | Post-emergence action against POLCO in % (POLCO; dosage 320 g/ha): 80% | Post-emergence action against VIOTR in % (VIOTR; dosage 80 g/ha): 90% | Post-emergence action against VIOTR in % (VIOTR; dosage 320 g/ha): 90% | Post-emergence action against VERPE in % (VERPE; dosage 80 g/ha): 80% | Post-emergence action against VERPE in % (VERPE; dosage 320 g/ha): 90% | Pre-emergence action against ALOMY in % (ALOMY): 80% | Pre-emergence action against ECHCG in % (ECHCG): 80% | Pre-emergence action against LOLRI in % (LOLRI [3]): 80% | Pre-emergence action against AMARE in % (AMARE [4]): 100% | Pre-emergence action at 1280 g/ha against MATIN in % (MATIN): 100% | Pre-emergence action at 1280 g/ha against STEME in % (STEME): 100% | herbicidal efficacy against harmful plants in the case of post-emergence treatment (in words) (harmful plants): good herbicidal efficacy

COC(=O)COc1nn(-c2cnccn2)c(-c2cncc(F)c2)c1Br [Example I-07]
Post-emergence action against LOLRI in % (LOLRI [1]; Dosage 80 g/ha): 80% | Post-emergence action against LOLRI in % (LOLRI [1]; Dosage 320 g/ha): 90% | Post-emergence action against AMARE in % (AMARE [2]; dosage 320 g/ha): 80% | Post-emergence action against POLCO in % (POLCO; dosage 80 g/ha): 80% | Post-emergence action against POLCO in % (POLCO; dosage 320 g/ha): 90% | Post-emergence action against VIOTR in % (VIOTR; dosage 80 g/ha): 80% | Post-emergence action against VIOTR in % (VIOTR; dosage 320 g/ha): 90% | Post-emergence action against VERPE in % (VERPE; dosage 80 g/ha): 90% | Post-emergence action against VERPE in % (VERPE; dosage 320 g/ha): 90% | Pre-emergence action against ALOMY in % (ALOMY): 100% | Pre-emergence action against ECHCG in % (ECHCG): 100% | Pre-emergence action against LOLRI in % (LOLRI [3]): 100% | Pre-emergence action against AMARE in % (AMARE [4]): 100% | herbicidal efficacy against harmful plants in the case of post-emergence treatment (in words) (harmful plants): good herbicidal efficacy

COC(=O)[C@@H](C)Oc1nn(-c2cnccn2)c(-c2cccc(F)c2)c1Br [Example I-20]
Post-emergence action against LOLRI in % (LOLRI [1]; Dosage 80 g/ha): 90% | Post-emergence action against LOLRI in % (LOLRI [1]; Dosage 320 g/ha): 100% | Post-emergence action against AMARE in % (AMARE [2]; dosage 80 g/ha): 90% | Post-emergence action against AMARE in % (AMARE [2]; dosage 320 g/ha): 100% | Post-emergence action against POLCO in % (POLCO; dosage 320 g/ha): 80% | Post-emergence action against VIOTR in % (VIOTR; dosage 80 g/ha): 80% | Post-emergence action against VERPE in % (VERPE; dosage 80 g/ha): 80% | Post-emergence action against VERPE in % (VERPE; dosage 320 g/ha): 90% | Pre-emergence action against ALOMY in % (ALOMY): 90% | Pre-emergence action against ECHCG in % (ECHCG): 90% | Pre-emergence action against AMARE in % (AMARE [4]): 100% | Pre-emergence action at 1280 g/ha against MATIN in % (MATIN): 100% | Pre-emergence action at 1280 g/ha against STEME in % (STEME): 100% | herbicidal efficacy against harmful plants in the case of post-emergence treatment (in words) (harmful plants): good herbicidal efficacy
